Common to all, as to type: cell-based
Experiment [1] deals with HCC78 cells. Kind of experiment: colony formation assay. The note with it: HCC78 cells, 1.25, 2.5 and 5 μM, 10 days; dose-dependent. Here is the method: Still further, inhibitory effect of the compound of Formula (V) on the colony formation in HCC78 cells has been tested to provide further evidence that the compound of Formula (V) inhibits the formation of colonies of cancerous cell to an exceptional degree, too.
HCC78 cells were seeded on a six-well plate at a density of 500 cells per well. The cells were exposed to various concentrations of the compound of Formula (V). After 10 days, the colonies were fixed with 4% paraformaldehyde and stained with a 0.5% (0.5% w/v) crystal violet solutions, the number of colonies >50 was counted under a dissecting microscope and surviving fractions were calculated.

Experiment [2] has as its system HCC78 NSCLC cells (with ROS1 rearrangement). Kind of experiment: MTT cytotoxicity assay on HCC78 NSCLC cells. The settings on record: Homo sapiens, 72 h, mean±SEM, read-out: IC50 (cell viability, MTT). Here is the method:
(§1) HCC78 cells and CCD19-Lu cells were obtained from the American Type Culture Collection and cultured in environment of 5% CO2 at 37° C. in RPMI-1640 (GIBCO, Lift Technologies) medium supplemented with 10% fetal bovine serum (FBS) (GIBCO, Lift Technologies), 100 units/mL penicillin, and 100 μg/mL streptomycin (GIBCO, Lift Technologies), crizotinib was purchased from Selleck Chemicals.
(§2) For MTT assay, 3000 cells were seeded on 96-well plates, then treated with DMSO or various concentrations of the compound of Formula (V) for 72 h. At the end of the incubation, 10 μL of MTT (5 mg/mL; Sigma) was added into each well, and the plates were incubated for an additional 4 hours, then the dark blue crystals were dissolved in 100 μL of the resolved solution (10% SDS and 0.1 mM HCL). Finally, the absorbance was measured by a microplate reader at 570 nm (Tecan, Morrisville, N.C., USA). The cell viability was calculated relative to untreated controls, with results based on at least three independent experiments.

Experiment [3] concerns ROS1 phosphorylation and ROS1 downstream signaling molecules pERK1/2, pSTAT3 and pAKT. As to the kind of experiment: western blot of ROS1 phosphorylation and downstream signaling. The settings on record: HCC78 cells, 2.5, 5 and 10 μM, dose-dependent. The method, then: Additionally, the suppression of ROS1 phosphorylation as well as its downstream signaling pathway by the compound of Formula (V) has been studied.
Cells exposed to different concentrations of compound of Formula (V), namely 2.5, 5 and 10 μM or 2.5 μM crizotinib as described above and a control group were washed twice with cold PBS then lysed in RIPA lysis buffer containing protease and phosphatase inhibitors, protein concentration of the cell lysates were measured using the Bio-Rad protein Assay kit (Bio-Rad, Philadelphia, Pa., USA). After equalizing the protein concentrations of the samples, 5× laemmli buffer was added and boiled at 100° C. for 5 min. Equal amounts of protein (20-40 μg per lane) were separated with a 10% SDS-PAGE gel, then the separated proteins were transferred to a nitrocellulose (NC) membrane, which was then exposed to 5% non-fat dry milk in TBS containing 0.1% Tween 20 (0.1% TBST) for 1 hour at room temperature with constant agitation, followed by overnight incubation at 4° C. with primary antibodies, after washing 3 times by TBST, the membranes were incubated with secondary rabbit or mouse fluorescent antibodies, the signal intensity of the membranes was detected by an LI-COR Odessy scanner (Belfast, Me., USA). Antibodies against GAPDH, p-AKT, p-ROS1, ROS1, p-ERK, ERK, p-STAT3, STAT3 were purchased from Cell signaling Technology. […]

The test system of experiment [4] is HCC78 cells. Kind of experiment: Annexin-V FITC/PI flow cytometry apoptosis assay. The note with it: HCC78 cells, 2.5, 5 and 10 μM, 24 h, compared to control group; concentration-dependent. The method, then: HCC78 cells (1.0×10^5 cells/well) were allowed to attach in a 6-well plates for 24 h, cells were treated with the compound of Formula (V) for 24 h. Subsequently, cells were trypsinized, washed with PBS and stained with 100 μL binding buffer containing 2 μL Annexin-V FITC and 4 μL propidine iodide (PI) incubated in the dark at room temperature for 15 min, before further addition of 400 μL of 1× Annexin-binding buffer. The stained cells were analyzed quantitatively using a Flow Cytometer (BD Biosciences, San Jose, Calif., USA). Data were analyzed by Flow Jo software.

Experiment [5] concerns normal lung cells (CCD19-Lu). As to the kind of experiment: MTT cytotoxicity assay on normal lung cells. The settings on record: Homo sapiens, CCD 19Lu, 72 h, 0-20 μM, read-out: IC50 (cell viability, MTT). The method, then: as §1, §2

With `CCN(CC)CCNC(=O)c1cc2c(=O)n(C)c3cc(Cl)ccc3c2s1` [compound of Formula (V)], the “formation of HCC78 cell colonies” value in experiment [1] was “advantageously inhibited the formation of HCC78 cell colonies”. Moreover, the IC50 in experiment [2] is 6.35 ± 1.44 µM; in experiment [5] it was more than 20 µM. In addition, the “ROS1 downstream signaling molecules pERK1/2, pSTAT3 and pAKT” value in experiment [3] was “inhibition”. For the same compound, the ROS1 phosphorylation entry in experiment [3] is reported as “inhibition of ROS1 phosphorylation”. Besides, the induction of apoptosis result in experiment [4] was “induced significant levels of cell apoptosis compared to the control group”.

Source of the values: patent publication US9962378B2, “ROS1 inhibitor and its use” (Macau University of Science and Technology, priority 2015, dated 2018).
